Patent US20240100000A1, “APPLICATION OF ADRB1 ACTIVE INHIBITOR IN PREPARING PREPARATION OR AS PREPARATION FOR TREATING PSORIASIS” (priority 2022, published 2024)
Structures can show the parent of a compound that is named as a salt.

Legend:
[1] = tested on: catecholaminergic neurons; conditions: intraperitoneal injection; cited from earlier work
skin sympathetic nerve = assay: Psoriasis model with skin sympathetic nerve ablation (intradermal 6-OHDA before IMQ); type: in vivo, mice; conditions: intradermal injection before IMQ treatment
Method: In the embodiment of the disclosure, the sympathectomy of local skin is as follows. […] of 6-hydroxydopamine (6-OHDA) are dissolved into 100 microliters (μL) of 0.1% ascorbic acid solution (diluted with 0.9% sterile sodium chloride) to prepare a fresh sympathetic nerve ablation solution. Wild-type mice aged 7-8 weeks are selected to shave their back hair, and the exposed skin area is 2 centimeters (cm)×2 cm. Then, the mice are intradermally injected with 100 μL fresh sympathetic nerve ablation solution, controls are injected with an injecting control agent (100 μL of 0.1% ascorbic acid solution).

NF-κB (P65) = assay: Activation of NF-κB, AKT, p38, ERK in IL-23-activated primary γδT cells; type: cell-based, mice
Description: (§1) In the embodiment of the disclosure, in order to study how to ADRB1 regulates the inflammatory response of γδT cells, high-purity primary γδT cells are isolated from the spleen of mice by magnetic bead sorting kit, and stimulated with ADRB1 agonist and antagonist respectively.

primary γδT cells = assay: IL17A/F transcription in primary γδT cells stimulated by IL-23 and ACE/DOB; type: cell-based, mice; conditions: primary γδT cells activated by IL-23; DOB at high concentration
Description: as §1

IMQ-induced mice [2] = assay: IMQ-induced psoriasis mouse model smeared with β1-AR antagonist/agonist; type: in vivo
Method: In the embodiment of the disclosure, the construction of psoriasis mouse model smeared with β1-AR antagonist/agonist is as follows. 5 μL of β1-AR antagonist/agonist storage solution (40 mg/mL, DMSO solvent) is taken and dissolved in 95 μL of 20% sulfobutylether-beta-cyclodextrin derivative (SBE-β-CD) solution (diluted with sterile sodium chloride) to prepare 2 mg/mL antagonist/agonist diluent. Wild-type mice aged 7-8 weeks are selected to shave their back hair, and the exposed skin area is 2 cm×2 cm. The mice are applied with 100 μL of the antagonist/agonist diluent, and controls are smeared with a smearing control agent (i.e., 5 μL DMSO+95 μL 20% SBE-β-CD solution).

NF-κB = NF-κB phosphorylation in skin of IMQ-induced psoriatic mice; type: in vivo
[3] = tested on: γδT-cell deficient mice (Tcrd−/−); assay: DOB applied to skin of γδT-cell deficient mice (Tcrd−/−); type: in vivo
Description: Combined with the previous results, it is verified that NE in skin is mainly derived from skin sympathetic nerve and mediates the release IL-17 from γδT cells rather than αβT cells through NE-ADRB1 signaling pathway.

β1-AR = assay: Proportion of β1-AR+ T cells in skin of IMQ-treated mice (immunofluorescence and flow cytometry); type: in vivo
Description: In the embodiment of the disclosure, immunofluorescence and flow cytometry are used to detect β1-AR is mainly expressed in IL-17A-producing γδT cells (also referred to as γδT-17 cells), as shown in FIG. 14.

[4] = Neurotransmitter content (ELISA) and TH phosphorylation (western blot) in IMQ-treated mice; type: in vivo
Dendritic cells (DCs) = conditions: cited from earlier work; for IL-17A induced by stimulated DCs / production of IFN-γ by CD4 cells: DCs in mice stimulated
IMQ-induced mice [5] = assay: Psoriasis model with subcutaneous norepinephrine (NE) injection; type: in vivo; conditions: subcutaneous injection while IMQ is smeared
Method: In the embodiment of the disclosure, the construction of psoriasis model injected with norepinephrine (NE) is as follows. 6 μL of norepinephrine storage solution (10 millimoles per liter, abbreviated mM) is dissolved into 100 μL of 1 xphosphate-buffered saline (also referred to as 1×PBS, specifically prepared by a commonly used 1× phosphate buffered saline recipe), and […] NE diluent is prepared. Wild-type mice aged 7-8 weeks are selected to shave their back hair, and the exposed skin area is 2 cm×2 cm. Then, the mice are subcutaneously injected with 100 μL NE diluent, and controls are injected with an injecting control agent (6 μL dimethyl sulfoxide, abbreviated DMSO+100 μL PBS).

[6] = psoriatic mice treated with IMQ vs control mice treated with VAS

Q: For `NCCc1cc(O)c(O)cc1O` [6-OHDA, 6-hydroxydopamine], which “IMQ induced ear swelling” value [1] is on record?
A: The value was “reduce”.

Q: And the “production of IL-17” value [1]?
A: Its value is “does not affect”.

Q: And the “IL-17A+γδT cells in sympathetic denervated skin” value (skin sympathetic nerve)?
A: The value was “decreased”.

Q: What about the “NE in sympathetic denervated skin” value (skin sympathetic nerve) of the same molecule?
A: Its value is “decrease”.

Q: What about the “psoriasis-like phenotype of mice induced by IMQ” value (skin sympathetic nerve; removal of skin sympathetic nerve) of the same molecule?
A: The value was “reduces”.

Q: For `CCCC(=O)Nc1ccc(OCC(O)CNC(C)C)c(C(C)=O)c1` (stereo not drawn) [ACE, acebutolol hydrochloride], which “NF-κB (P65) phosphorylation” value (NF-κB (P65)) is on record?
A: The value was “inhibits”.

Q: And the “activation of P38, ERK, JNK and AKT” value (NF-κB (P65))?
A: The value was “do not affect”.

Q: What about the “transcription of IL17A” value (primary γδT cells) of the same molecule?
A: Its value is “decreases”.

Q: What about the “transcription of IL17F” value (primary γδT cells) of the same molecule?
A: The value was “decreases”.

Q: What about the “proportion of γδT-17 cells in the skin” value (IMQ-induced mice [2]; IMQ-induced mice smeared with drug) of the same molecule?
A: Its value is “reduced”.

Q: And the “activation of NF-κB (phosphorylation) in the skin” value (NF-κB)?
A: Its value is “inhibition”.

Q: Which results are given for `CC(CCc1ccc(O)cc1)NCCc1ccc(O)c(O)c1` (stereo not drawn) [DOB, dobutamine hydrochloride]?
A: NF-κB (P65) phosphorylation (NF-κB (P65)): significantly increases; activation of P38, ERK, JNK and AKT (NF-κB (P65)): do not affect; transcription of IL17A (primary γδT cells): increase; transcription of IL17F (primary γδT cells): increase; IL-17A production of γδT cells in the skin (IMQ-induced mice [2]; IMQ-induced mice): promotes; back skin thickness, erythema, and scaling (IMQ-induced mice [2]; IMQ-induced mice smeared with drug, compared with the control group): increased; psoriasis-like phenotype (IMQ-induced mice [2]; IMQ-induced mice, smeared on back skin, 100 μL of 2 mg/mL diluent, 4 consecutive days, compared with the control group): aggravated; IL-17 producing capacity αβT cells [3]: no effect; promoting effects on the psoriasis-like phenotype and inflammatory infiltration ([3]; lack of γδT cells): offset; activation of NF-κB (phosphorylation) in the skin (NF-κB): enhances

Q: What does the source list for `CC(C)Cn1cnc2c(N)nc3ccccc3c21` [IMQ, imiquimod]?
A: proportion of β1-AR+ cells in γδT cells in the skin (β1-AR; IMQ-treated vs VAS treated mice): significantly higher; proportion of β1-AR+ cells in αβT cells in the skin (β1-AR; VAS-treated vs IMQ-treated mice): no significant difference; NE content in both skin and serum [4, 6]: higher; dopamine in skin and serum [4, 6]: no difference; TH phosphorylation in mouse skin ([4]; western blot): significant up-regulation

Q: With `NC[C@H](O)c1ccc(O)c(O)c1` [NE, norepinephrine] as the molecule, how does the “IL-17A induced by stimulated DCs” value (Dendritic cells (DCs)) read?
A: The value was “induce”.

Q: And the “production of IFN-γ by CD4 cells” value (Dendritic cells (DCs))?
A: Its value is “reducing”.

Q: What about the “proportion of IL-17A+γδT cells in the skin of mice” value (IMQ-induced mice [5]) of the same molecule?
A: The value was “increases”.

Q: What about the “psoriasis-like phenotype of mice induced by IMQ” value (IMQ-induced mice [5]; 4 days) of the same molecule?
A: The value was “exacerbates”.

Q: Which “IL-23 production by DCs” value (Dendritic cells (DCs); DCs from treated mice) does the source give for `CC(C)(C)NCC(O)c1ccc(O)c(CO)c1` (stereo not drawn) [salbutamol] here?
A: Its value is “more”.

Q: And the “IL-17A induced by stimulated DCs” value (Dendritic cells (DCs))?
A: The value was “induce”.

Q: What about the “production of IFN-γ by CD4 cells” value (Dendritic cells (DCs)) of the same molecule?
A: The value was “reducing”.
